Laboratory results published in patent US4404217A, “3-Indolyl alkylene amino propanols and cardiovascular compositions thereof” (C. M. Industries, priority 1979, dated 1983).
Read-outs that look alike come from different tables or passages of the source.

Key:
[1] = molecular target: T1, β adrenergic receptors (β1) (Canis lupus familiaris, UniProt P79148); assay: Antagonism of the effects of isoprenaline, tachycardia (β1), anaesthetized dog, IV; type: in vivo; conditions: for ED50 / cardioselectivity β1 - β2: dog; for ED50: read-out: ID50 ISOPRENALINE β1; for cardioselectivity β1 - β2: isoprenaline antagonism, β1 versus β2; for cardioselective in vivo (selectively inhibit the cardiac receptors): test with isoprenaline
T1 construct: The dog is anaesthetized using sodium pentobarbital; from tissue; host or cells: whole anaesthetized dog (heart)

[2] = molecular target: T2, β adrenergic receptors (β2) (Canis lupus familiaris, UniProt P54833); assay: Antagonism of the effects of isoprenaline, hypotension (β2), anaesthetized dog, IV; type: in vivo; conditions: read-out: ID50 ISOPRENALINE β2
T2 construct: The dog is anaesthetized using sodium pentobarbital; from tissue; host or cells: whole anaesthetized dog (vasculature)
Protocol: (§1) The dog is anaesthetized using sodium pentobarbital, administered by the IV route at a dose of 30 mg/kg. A cannula placed in the saphenous vein allows the intra-venous injections of the products. The animal is submitted to intubation and is allowed to breathe spontaneously.
(§2) The cardiac frequency and the systemic arterial pressure are studied and the variations of these parameters are observed after intra-venous injection of the product to be tested. Each product is tested with increasing doses.
The antagonism of the products with respect to the β stimulant cardio-vascular effects of isoprenaline on the β adrenergic receptors has been sought. […] The last column indicates the cardioselectivity (β1 >β2) or a low cardioselectivity β1 ≥β2, or no cardioselectivity β1 <β2 and β1 =β2.

α adrenergic receptors = assay: Antagonism of the effects of noradrenaline (pressure response), anaesthetized dog, IV; type: in vivo; conditions: 50% inhibition of pressure response to noradrenaline
Protocol: as §1, §2
The antagonism of the products with respect to the vascular effects provoked by the IV administration of noradrenaline on the α adrenergic receptors has been sought. The results presented in Table III are expressed in ID50 : it is the dose (mg/kg) which provokes the inhibition by 50% of the pressure response due to the IV administration of noradrenaline.

β1 receptor = molecular target: T3, β1 receptor (Canis lupus familiaris, UniProt P79148); assay: Displacement of 3H dihydroalprenolol, plasmic membranes of hearts of dogs; type: binding, dog; conditions: for affinity for β1 receptors (heart) versus β2 receptors (lungs): in vitro, compared with lung β2 (A5)
T3 construct: plasmic membranes of hearts of dogs (β1 receptor); from tissue; host or cells: dog heart plasma membranes
Protocol: (§3) The binding tests are effected on suspensions of plasmic membranes coming from various organs. The suspensions of membranes are placed in incubation with the tritiated ligand and various concentrations of products to be tested. After incubation, each test is filtered on GFB(Whatman) filter, the filters are dried and introduced into counting flasks. The measurement of the radioactivity is assessed by scintillation in a liquid medium.
(§4) The tests were made on plasmic membranes of hearts of dogs (β1 receptor) and lungs of rats (β2 receptors), in the presence of ^3 H dihydroalprenolol 4×10^-9 M.

β2 receptors = molecular target: T4, β2 receptors (Rattus norvegicus, UniProt P10608); assay: Displacement of 3H dihydroalprenolol, plasmic membranes of lungs of rats; type: binding
T4 construct: lungs of rats (β2 receptors); from tissue; host or cells: rat lung plasma membranes
Protocol: as §3, §4

α2 receptor = molecular target: T5, α2 receptor (Rattus norvegicus, UniProt P22909); assay: Displacement of 3H clonidine, plasmic membranes of rat brains; type: binding; conditions: for affinity for the receptor with clonidine (α2): in vitro
T5 construct: plasmic membranes of rat brains; from tissue; host or cells: rat brain plasma membranes
T5 sequence (P22909 1-465): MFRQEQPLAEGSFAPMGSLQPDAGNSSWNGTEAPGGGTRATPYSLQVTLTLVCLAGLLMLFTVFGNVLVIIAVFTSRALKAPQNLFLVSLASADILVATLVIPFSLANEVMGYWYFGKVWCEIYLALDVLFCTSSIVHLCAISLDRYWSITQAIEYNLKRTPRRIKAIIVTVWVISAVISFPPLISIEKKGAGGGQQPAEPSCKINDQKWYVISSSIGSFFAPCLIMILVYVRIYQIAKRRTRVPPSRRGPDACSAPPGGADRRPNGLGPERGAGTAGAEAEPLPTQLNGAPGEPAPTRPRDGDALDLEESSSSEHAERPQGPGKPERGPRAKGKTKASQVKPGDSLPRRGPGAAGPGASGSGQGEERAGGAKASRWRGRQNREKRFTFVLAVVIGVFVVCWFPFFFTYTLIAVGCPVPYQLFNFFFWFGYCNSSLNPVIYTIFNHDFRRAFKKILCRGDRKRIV
Protocol: as §3
(§5) The tests were made on plasmic membranes of rat brains, in the presence of ^3 H clonidine 1.2×10^-9 M (α2 receptor) and of ^3 H WB4101 (N-[2-(2.6dimethoxyphenoxy)ethyl]1.4benzodioxane-2-methylamine), 0.2×10^-9 M (α1 receptor).

α1 receptor = assay: Displacement of 3H WB 4101, plasmic membranes of rat brains; type: binding; conditions: for EC50: read-out: EC50 of DISPLACEMENT of 3H WB 4101, rat brain membranes, 3H WB4101 0.2×10^-9 M
Protocol: as §3, §5

[3] = Cardiac frequency and arterial pressure in the anaesthetized dog after intravenous injection; type: in vivo; conditions: i.v. route, anaesthetised dog
Protocol: as §1, §2

platelet aggregation = assay: Anti-aggregating activity, BORN technique, plasma rich in platelets, ADP; type: cell-based, human; conditions: human platelet-rich plasma; for IC50: ADP, range over all products tested, read-out: concentration for inhibiting by 50% the maximum rate of aggregation
Protocol: The anti-aggregating activity of the CM 7743, 7744, 7824, 7854, 7859 and 7874 has been studied according to the BORN technique on plasma rich in platelets of human origin. ADP has been used as indicator of platelet aggregation. […] The required concentration for inhibiting by 50% the maximum rate of aggregation varies from 45 to 100 μM.

[4] = IV, 50% inhibition of isoprenaline tachycardia
[5] = IV, 50% inhibition of isoprenaline hypotension
[6] = rat brain membranes, 3H clonidine 1.2×10^-9 M
[7] = dog heart membranes, 3H dihydroalprenolol 4×10^-9 M

T3 sequence (P79148 whole entry): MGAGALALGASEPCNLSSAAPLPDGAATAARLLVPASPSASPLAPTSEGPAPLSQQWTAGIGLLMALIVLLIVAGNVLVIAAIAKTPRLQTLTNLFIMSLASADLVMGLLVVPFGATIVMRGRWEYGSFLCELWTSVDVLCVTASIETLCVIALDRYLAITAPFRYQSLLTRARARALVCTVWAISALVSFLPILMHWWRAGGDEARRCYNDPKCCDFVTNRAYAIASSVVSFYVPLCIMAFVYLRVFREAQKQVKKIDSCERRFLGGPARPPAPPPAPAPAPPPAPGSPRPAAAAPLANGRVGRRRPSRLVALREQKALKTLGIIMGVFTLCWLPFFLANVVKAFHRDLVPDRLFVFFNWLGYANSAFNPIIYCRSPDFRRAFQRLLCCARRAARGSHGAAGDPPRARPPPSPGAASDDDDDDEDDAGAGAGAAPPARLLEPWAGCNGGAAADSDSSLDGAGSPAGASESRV
T1 sequence (P79148 whole entry): as above
T2 sequence (P54833 whole entry): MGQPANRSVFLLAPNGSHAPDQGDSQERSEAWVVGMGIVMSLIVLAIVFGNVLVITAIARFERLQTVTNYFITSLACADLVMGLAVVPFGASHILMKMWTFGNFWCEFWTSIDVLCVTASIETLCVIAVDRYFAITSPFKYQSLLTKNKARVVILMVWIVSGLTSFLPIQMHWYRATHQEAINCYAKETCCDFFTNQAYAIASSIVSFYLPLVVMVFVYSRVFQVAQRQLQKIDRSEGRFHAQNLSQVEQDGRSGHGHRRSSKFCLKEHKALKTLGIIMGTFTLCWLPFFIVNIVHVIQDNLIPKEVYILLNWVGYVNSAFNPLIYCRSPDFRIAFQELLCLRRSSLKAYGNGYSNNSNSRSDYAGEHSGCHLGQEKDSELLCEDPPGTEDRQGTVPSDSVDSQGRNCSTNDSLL
T4 sequence (P10608 whole entry): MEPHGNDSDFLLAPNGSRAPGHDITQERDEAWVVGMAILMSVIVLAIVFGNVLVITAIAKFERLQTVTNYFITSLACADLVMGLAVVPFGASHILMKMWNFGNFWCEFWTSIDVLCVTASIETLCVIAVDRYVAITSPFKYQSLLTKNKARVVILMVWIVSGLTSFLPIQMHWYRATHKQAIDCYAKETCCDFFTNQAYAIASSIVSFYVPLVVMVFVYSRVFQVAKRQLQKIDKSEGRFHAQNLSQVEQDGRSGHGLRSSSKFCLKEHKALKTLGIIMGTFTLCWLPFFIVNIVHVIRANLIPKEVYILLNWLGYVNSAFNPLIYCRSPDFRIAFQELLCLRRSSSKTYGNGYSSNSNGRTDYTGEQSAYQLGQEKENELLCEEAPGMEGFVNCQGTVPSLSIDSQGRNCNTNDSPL

Row | SMILES | ED50 [1, 4] [mg/kg] | cardioselectivity β1 - β2 ([1]; IV) | ED50 [2, 5] [mg/kg] | ID50 NORADRENALINE α (α adrenergic receptors) [mg/kg] | EC50 (α1 receptor) [µM] | ED50 ([1]; iv) [mg/kg] | affinity for the receptor with clonidine (α2) (α2 receptor) | cardioselective in vivo (selectively inhibit the cardiac receptors) [1] | EC50 (α2 receptor; [6]) [µM] | other results
1 | Cc1ccccc1OCC(O)CNC(CO)Cc1c[nH]c2ccccc12 (racemic) [compound 7906] | 0.3 to 1 | β1 ≥ β2 (low cardioselectivity β1 ≥β2) | 1 | > 3 | 0.0011 |  |  |  |  | EC50 (β1 receptor; read-out: EC50 of DISPLACEMENT of 3H DIHYDROALPRENOLOL, Heart (β1), dog heart membranes, 3H dihydroalprenolol 4×10^-9 M): 0.215 µM; EC50 (β2 receptors; read-out: EC50 of DISPLACEMENT of 3H DIHYDROALPRENOLOL, Lung (β2), rat lung membranes, 3H dihydroalprenolol 4×10^-9 M): 0.155 µM; EC50 (α2 receptor; read-out: EC50 of DISPLACEMENT of 3H CLONIDINE, rat brain membranes, 3H clonidine 1.2×10^-9 M): 0.041 µM; reduction in the peripheral arterial pressure [3]: reduction in the peripheral arterial pressure
2 | CCC(=O)c1ccc(OCC(O)CNC(C)Cc2c[nH]c3ccccc23)c(Cl)c1 (stereo not shown) [compound 7743] |  | β1 ≥ β2 (low cardioselectivity β1 ≥β2) |  | 3 |  | 1 to 3 | no affinity |  |  | ED50 ([2]; iv): ≥ 3 mg/kg; inhibition of the platelet response with respect to the ADP (platelet aggregation): inhibited the platelet response; IC50 (platelet aggregation): 45 to 100 µM
3 | NC(=O)Cc1ccc(OCC(O)CNCCc2c[nH]c3ccccc23)cc1 (stereo not shown) [compound 7748] | 1 to 3 | β1 > β2 (cardioselectivity (β1 >β2)) | > 3 | 1 | 0.0027 |  | no affinity | cardioselective in vivo | 0.0295 | affinity for β1 receptors (heart) versus β2 receptors (lungs) (β1 receptor): clearly greater affinity for the β1 receptors (heart) than for the β2 receptors (lungs)
4 | Cc1cccc(OCC(O)CNC(C)Cc2c[nH]c3ccccc23)c1 (stereo not shown) [compound 7782] |  | β1 > β2 (cardioselectivity (β1 >β2)) | ≥ 3 | 0.3 |  | 0.1 to 0.3 | no affinity | cardioselective in vivo | 0.03 | EC50 (β1 receptor): 0.053 µM; EC50 (β2 receptors): 0.0615 µM
5 | CCCC(=O)Nc1ccc(OCC(O)CNC(C)Cc2c[nH]c3ccccc23)c(C(C)=O)c1 (stereo not shown) [compound 7798] |  | β1 > β2 (cardioselectivity (β1 >β2)) | ≥ 3 | > 3 |  | 1 |  | cardioselective in vivo |  | EC50 (β1 receptor; [7]): 0.55 µM; affinity for β1 receptors (heart) versus β2 receptors (lungs) (β1 receptor): clearly greater affinity for the β1 receptors (heart) than for the β2 receptors (lungs)
6 | CC(Cc1c[nH]c2ccccc12)NCC(O)COc1ccccc1Cl (stereo not shown) [compound 7806] |  |  |  | 0.3 | 0.31 | 0.3 | no affinity |  |  | ED50 ([2]; iv): ≥ 0.1 mg/kg; EC50 (β1 receptor): 0.0275 µM; EC50 (β2 receptors): 0.012 µM; EC50 (α2 receptor): 0.012 µM; affinity for the receptor with WB 4101 (α1) (α1 receptor; in vitro): have an affinity; reduction in the peripheral arterial pressure [3]: reduction in the peripheral arterial pressure
7 | Cc1ccccc1OCC(O)CNC(C)(C)Cc1c[nH]c2ccccc12 (stereo not shown) [compound 7854] | 0.01 to 0.1 | β1 ≥ β2 (low cardioselectivity β1 ≥β2) | 0.02 to 0.1 | 0.1 | 0.32 |  |  |  | 0.006 | EC50 (β1 receptor; [7]): 0.016 µM; EC50 (β2 receptors; rat lung membranes, 3H dihydroalprenolol 4×10^-9 M): 0.0037 µM; inhibition of the platelet response with respect to the ADP (platelet aggregation): inhibited the platelet response; IC50 (platelet aggregation): 45 to 100 µM
